# Legend:
# [1] = Half life in mouse liver microsomes
# [2] = Half life in dog liver microsomes
# [3] = target: T1, Cytochrome P450 3A4 (Homo sapiens, UniProt P08684); test: Inhibition of CYP3A4 (unknown origin) using DBF as substrate by fluorescence assay
# [4] = Half life in rat liver microsomes
# [5] = Cmax in athymic CD1 nude mouse at 25 mg/kg, po by LC/MS/MS analysis; assay type: ADME, organism-based; design: dose 25 mg/kg, route oral; conditions: in vivo
# [6] = target: Cytochrome P450 2C9 (Homo sapiens, UniProt P11712); test: Inhibition of CYP2C9 (unknown origin) by fluorescence assay
# Chain of Cytochrome P450 2C9 (P11712 whole entry): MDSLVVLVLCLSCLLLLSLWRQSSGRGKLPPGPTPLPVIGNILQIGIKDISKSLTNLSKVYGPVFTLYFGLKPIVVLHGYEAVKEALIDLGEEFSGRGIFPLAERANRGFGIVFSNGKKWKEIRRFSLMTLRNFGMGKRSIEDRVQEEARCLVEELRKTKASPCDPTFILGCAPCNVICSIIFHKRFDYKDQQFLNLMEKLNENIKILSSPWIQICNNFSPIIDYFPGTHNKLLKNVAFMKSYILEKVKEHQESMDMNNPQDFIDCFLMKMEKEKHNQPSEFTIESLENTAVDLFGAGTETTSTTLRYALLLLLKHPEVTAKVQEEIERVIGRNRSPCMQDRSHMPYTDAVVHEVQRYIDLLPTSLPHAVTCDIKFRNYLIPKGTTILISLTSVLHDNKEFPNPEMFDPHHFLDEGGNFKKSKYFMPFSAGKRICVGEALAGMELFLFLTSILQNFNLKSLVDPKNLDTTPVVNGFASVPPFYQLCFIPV
# [7] = AUC in athymic CD1 nude mouse at 25 mg/kg, po by LC/MS/MS analysis; assay type: ADME, organism-based; design: dose 25 mg/kg, route oral; conditions: plasma
# [8] = target: T2, Cytochrome P450 1A2 (Homo sapiens, UniProt P05177); test: Inhibition of CYP1A2 (unknown origin) by fluorescence assay; assay type: ADME
# T2 sequence (P05177 whole entry): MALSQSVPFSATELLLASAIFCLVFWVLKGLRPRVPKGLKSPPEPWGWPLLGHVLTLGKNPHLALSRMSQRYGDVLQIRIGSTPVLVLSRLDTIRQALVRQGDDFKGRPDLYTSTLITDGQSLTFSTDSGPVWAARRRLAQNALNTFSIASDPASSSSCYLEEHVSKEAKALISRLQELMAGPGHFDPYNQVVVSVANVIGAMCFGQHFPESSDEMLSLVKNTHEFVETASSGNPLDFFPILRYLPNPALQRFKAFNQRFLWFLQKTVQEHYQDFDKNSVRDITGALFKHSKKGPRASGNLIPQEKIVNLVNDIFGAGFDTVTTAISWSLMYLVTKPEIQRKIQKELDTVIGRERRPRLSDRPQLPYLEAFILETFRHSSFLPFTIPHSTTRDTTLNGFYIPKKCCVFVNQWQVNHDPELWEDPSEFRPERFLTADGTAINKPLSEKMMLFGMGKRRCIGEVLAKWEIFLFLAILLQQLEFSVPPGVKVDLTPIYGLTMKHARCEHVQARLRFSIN
# [9] = target: T3, Serine/threonine-protein kinase PLK4 (Homo sapiens, UniProt O00444); test: Inhibition of PLK4 (unknown origin) by ELISA
# T3 sequence (O00444 whole entry): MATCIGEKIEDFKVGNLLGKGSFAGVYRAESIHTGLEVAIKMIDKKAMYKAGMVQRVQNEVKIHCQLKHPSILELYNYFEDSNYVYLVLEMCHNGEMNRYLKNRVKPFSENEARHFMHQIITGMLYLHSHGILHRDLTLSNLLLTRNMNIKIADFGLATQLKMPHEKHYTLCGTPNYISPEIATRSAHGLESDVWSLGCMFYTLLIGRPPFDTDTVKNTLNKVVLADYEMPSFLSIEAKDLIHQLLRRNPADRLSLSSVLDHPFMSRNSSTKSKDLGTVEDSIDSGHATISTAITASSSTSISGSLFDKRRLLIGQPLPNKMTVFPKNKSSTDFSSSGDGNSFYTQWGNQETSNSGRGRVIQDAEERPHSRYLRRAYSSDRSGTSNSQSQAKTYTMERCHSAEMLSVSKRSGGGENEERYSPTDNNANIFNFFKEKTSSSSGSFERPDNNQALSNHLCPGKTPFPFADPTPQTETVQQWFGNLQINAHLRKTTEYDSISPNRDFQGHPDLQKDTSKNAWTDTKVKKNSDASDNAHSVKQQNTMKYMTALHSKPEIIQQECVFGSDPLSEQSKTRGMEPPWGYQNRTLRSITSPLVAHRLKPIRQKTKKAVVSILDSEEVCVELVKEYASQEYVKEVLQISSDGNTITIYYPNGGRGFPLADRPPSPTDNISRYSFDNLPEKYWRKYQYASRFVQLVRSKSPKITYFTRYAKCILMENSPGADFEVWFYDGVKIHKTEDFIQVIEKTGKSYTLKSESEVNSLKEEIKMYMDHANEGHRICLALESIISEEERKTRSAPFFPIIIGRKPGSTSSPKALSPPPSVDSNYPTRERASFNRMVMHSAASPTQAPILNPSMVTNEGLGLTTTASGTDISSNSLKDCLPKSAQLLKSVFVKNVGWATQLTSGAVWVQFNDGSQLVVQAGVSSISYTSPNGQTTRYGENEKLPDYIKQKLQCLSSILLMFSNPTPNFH
# [10] = target: Cytochrome P450 2C19 (Homo sapiens, UniProt P33261); test: Inhibition of CYP2C19 (unknown origin) by fluorescence assay
# Chain of Cytochrome P450 2C19 (P33261 whole entry): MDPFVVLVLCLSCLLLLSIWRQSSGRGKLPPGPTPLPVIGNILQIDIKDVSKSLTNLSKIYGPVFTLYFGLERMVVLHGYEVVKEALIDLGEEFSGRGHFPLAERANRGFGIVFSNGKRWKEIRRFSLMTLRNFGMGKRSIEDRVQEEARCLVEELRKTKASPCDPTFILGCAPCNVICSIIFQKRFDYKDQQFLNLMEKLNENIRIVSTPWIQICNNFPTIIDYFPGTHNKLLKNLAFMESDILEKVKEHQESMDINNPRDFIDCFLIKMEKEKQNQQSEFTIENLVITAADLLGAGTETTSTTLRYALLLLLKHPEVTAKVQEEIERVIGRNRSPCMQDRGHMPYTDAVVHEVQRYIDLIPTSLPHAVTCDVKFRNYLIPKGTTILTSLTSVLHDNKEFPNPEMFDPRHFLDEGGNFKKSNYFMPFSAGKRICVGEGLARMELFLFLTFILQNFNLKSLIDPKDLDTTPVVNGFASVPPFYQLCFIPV
# [11] = target: T1, Cytochrome P450 3A4; test: Inhibition of CYP3A4 (unknown origin) using BFC as substrate by fluorescence assay
# [12] = system: MDA-MB-231; test: Growth inhibition of human MDA-MB-231 cells after 5 days by SRB assay; assay type: functional; conditions: Homo sapiens, MDA-MB-231, 120 h
# [13] = system: HCC1954; test: Growth inhibition of human HCC1954 cells after 5 days by SRB assay; assay type: functional; conditions: Homo sapiens, HCC1954, 120 h
# [14] = Growth inhibition of human HMEC cells after 5 days by SRB assay; assay type: cell-based; conditions: HMEC cells
# [15] = target: Cytochrome P450 2D6 (Homo sapiens, UniProt P10635); test: Inhibition of CYP2D6 (unknown origin) by fluorescence assay; assay type: ADME
# Chain of Cytochrome P450 2D6 (P10635 whole entry): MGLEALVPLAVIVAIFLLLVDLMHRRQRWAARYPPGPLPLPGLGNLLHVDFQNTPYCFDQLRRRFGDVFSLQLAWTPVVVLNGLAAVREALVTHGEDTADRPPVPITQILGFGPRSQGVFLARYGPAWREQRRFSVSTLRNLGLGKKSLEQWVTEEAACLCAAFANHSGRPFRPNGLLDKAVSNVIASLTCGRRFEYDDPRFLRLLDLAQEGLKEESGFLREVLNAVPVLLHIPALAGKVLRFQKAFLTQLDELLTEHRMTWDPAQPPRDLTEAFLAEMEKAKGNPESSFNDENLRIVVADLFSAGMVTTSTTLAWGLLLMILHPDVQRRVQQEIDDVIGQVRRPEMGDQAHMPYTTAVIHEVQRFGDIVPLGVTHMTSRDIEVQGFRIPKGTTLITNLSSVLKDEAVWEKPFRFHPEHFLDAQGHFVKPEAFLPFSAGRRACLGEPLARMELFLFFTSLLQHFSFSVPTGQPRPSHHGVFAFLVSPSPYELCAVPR
# [16] = Half life in human liver microsomes
# [17] = system: MDA-MB-468; test: Growth inhibition of human MDA-MB-468 cells after 5 days by SRB assay; assay type: functional; conditions: Homo sapiens, MDA-MB-468, 120 h
# [18] = system: MCF7; test: Growth inhibition of human MCF7 cells after 5 days by SRB assay; assay type: functional; conditions: Homo sapiens, MCF7, 120 h
# [19] = system: Canis familiaris; test: Clearance in beagle dog at 1 mg/kg, iv; assay type: ADME, organism-based, Canis lupus familiaris; design: dose 1 mg/kg, route intravenous; conditions: in vivo
# [20] = Oral bioavailability in beagle dog at 5 mg/kg; assay type: ADME, organism-based, Canis lupus familiaris; conditions: in vivo
# [21] = AUC(infinity) in beagle dog at 1 mg/kg, iv; assay type: ADME, organism-based, Canis lupus familiaris; design: time infinity, dose 1 mg/kg, route intravenous; conditions: plasma
# [22] = system: Rattus norvegicus; test: Clearance in Sprague-Dawley rat at 1 mg/kg, iv; assay type: ADME, organism-based; design: dose 1 mg/kg, route intravenous; conditions: in vivo
# [23] = Half life in Sprague-Dawley rat at 1 mg/kg, iv; assay type: ADME, organism-based; design: dose 1 mg/kg, route intravenous; conditions: in vivo
# [24] = Half life in beagle dog at 1 mg/kg, iv; assay type: ADME, organism-based, Canis lupus familiaris; design: dose 1 mg/kg, route intravenous; conditions: in vivo
# [25] = AUC(infinity) in Sprague-Dawley rat at 1 mg/kg, iv; assay type: ADME, organism-based; design: time infinity, dose 1 mg/kg, route intravenous; conditions: plasma
# [26] = AUC(infinity) in beagle dog at 5 mg/kg, po; assay type: ADME, organism-based, Canis lupus familiaris; design: time infinity, dose 5 mg/kg, route oral; conditions: plasma
# [27] = Oral bioavailability in Sprague-Dawley rat at 5 mg/kg; assay type: ADME, organism-based; conditions: in vivo
# [28] = AUC(infinity) in Sprague-Dawley rat at 5 mg/kg, po; assay type: ADME, organism-based; design: dose 5 mg/kg, route oral, time infinity; conditions: plasma
# T1 sequence (P08684 whole entry): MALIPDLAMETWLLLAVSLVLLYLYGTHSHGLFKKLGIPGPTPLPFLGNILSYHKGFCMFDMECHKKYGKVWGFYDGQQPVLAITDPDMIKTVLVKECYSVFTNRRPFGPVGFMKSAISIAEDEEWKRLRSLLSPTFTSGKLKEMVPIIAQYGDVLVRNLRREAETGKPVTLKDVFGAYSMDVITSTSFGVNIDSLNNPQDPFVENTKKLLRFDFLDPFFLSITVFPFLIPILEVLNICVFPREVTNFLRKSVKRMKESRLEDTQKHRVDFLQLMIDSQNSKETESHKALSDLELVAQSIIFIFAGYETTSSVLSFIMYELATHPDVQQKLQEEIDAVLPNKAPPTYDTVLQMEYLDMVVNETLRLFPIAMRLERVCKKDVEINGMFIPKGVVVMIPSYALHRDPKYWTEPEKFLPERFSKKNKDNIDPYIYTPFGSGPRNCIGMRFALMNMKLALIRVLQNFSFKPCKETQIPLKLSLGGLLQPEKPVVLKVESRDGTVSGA
Structure (SMILES),half-life ([1]; microsomes),IC50 [3],Cmax [5],IC50 [6],AUC [7],inhibition (INH) [8],IC50 [9],IC50 [10],IC50 [11],GI50 [12],GI50 [13],GI50 at 120 h [14],inhibition (INH) [15],half-life ([16]; microsomes),GI50 [17],GI50 [18],half-life ([1]; liver microsomes),half-life ([16]; liver microsomes),half-life ([2]; liver microsomes),half-life ([4]; liver microsomes),also measured
COc1ccc2c(c1)[C@]1(C[C@H]1c1ccc3c(/C=C/c4ccc(CN5C[C@@H](C)O[C@@H](C)C5)cc4)n[nH]c3c1)C(=O)N2C,10 min,> 1000 nM,3400 ng/mL,440 nM,6800 ng·h/mL,Not Active,5.7 nM,760 nM,10000 nM,50000 nM,15 nM,> 30000 nM,Not Active,> 60 min,29 nM,21 nM,,,,,half-life ([2]; microsomes): > 60 min; half-life ([4]; microsomes): 18 min
CN1CCN(c2ccc(/C=C/c3n[nH]c4cc([C@@H]5C[C@@]56C(=O)N(C)c5ccccc56)ccc34)cn2)CC1,,2900 nM,700 ng/mL,3800 nM,1600 ng·h/mL,Not Active,1.3 nM,1200 nM,300 nM,600 nM,5 nM,,Not Active,,1 nM,20 nM,7 min,27 min,,,
CC(C)N1CCC(Oc2ccc(/C=C/c3n[nH]c4cc([C@@H]5C[C@@]56C(=O)Nc5ccccc56)ccc34)cc2)CC1,,1600 nM,510 ng/mL,2400 nM,1400 ng·h/mL,Not Active,1.5 nM,1900 nM,> 1000 nM,1600 nM,7 nM,4100 nM,Not Active,,5 nM,67 nM,30 min,> 60 min,> 60 min,> 60 min,
COc1ccc2c(c1)[C@]1(C[C@H]1c1ccc3c(/C=C/c4ccc(CN5[C@H](C)CN(C)C[C@@H]5C)cc4)n[nH]c3c1)C(=O)N2,,1600 nM,1300 ng/mL,560 nM,2200 ng·h/mL,Not Active,0.39 nM,810 nM,10000 nM,2200 nM,2300 nM,,Not Active,,10 nM,2500 nM,38 min,> 60 min,39 min,49 min,
COc1ccc2c(c1)[C@]1(C[C@H]1c1ccc3c(/C=C/c4ccc([C@H](C)N5CCOCC5)cc4)n[nH]c3c1)C(=O)N2C,7.2 min,11000 nM,3300 ng/mL,440 nM,16000 ng·h/mL,Not Active,1.5 nM,900 nM,450 nM,1000 nM,10 nM,9600 nM,Not Active,53 min,10 nM,50 nM,,,,,half-life ([2]; microsomes): 6.8 min; half-life ([4]; microsomes): 10 min
O=C1Nc2ccccc2[C@]12C[C@H]2c1ccc2c(/C=C/c3ccc(N4CCNCC4)cc3)n[nH]c2c1,19 min,2800 nM,120 ng/mL,1700 nM,340 ng·h/mL,Not Active,0.9 nM,900 nM,,23 nM,260 nM,21000 nM,Not Active,46 min,2 nM,20 nM,,,,,
Cc1ccc2c(c1)[C@]1(C[C@H]1c1ccc3c(/C=C/c4ccc(CN5CCOCC5)cc4)n[nH]c3c1)C(=O)N2,,,2100 ng/mL,1000 nM,5500 ng·h/mL,Not Active,,1200 nM,,22000 nM,< 10 nM,9300 nM,Not Active,,13 nM,< 10 nM,13 min,56 min,9.5 min,9 min,clearance [19]: 23.3 mL/min/kg; bioavailability [20]: 29%; AUC(0-inf) [21]: 795 ng·h/mL; clearance [22]: 58.3 mL/min/kg; half-life [23]: 96 min; half-life [24]: 420 min; AUC(0-inf) [25]: 285 ng·h/mL; AUC(0-inf) [26]: 1140 ng·h/mL; bioavailability [27]: 28%; AUC(0-inf) [28]: 410 ng·h/mL

# Source: ChEMBL document CHEMBL3407349, “The discovery of Polo-like kinase 4 inhibitors: identification of (1R,2S).2-(3-((E).4-(((cis).2,6-dimethylmorpholino)methyl)styryl). 1H.indazol-6-yl)-5'-methoxyspiro[cyclopropane-1,3'-indolin]-2'-one (CFI-400945) as a potent, orally active antitumor agent” (J Med Chem, 2015)
